This assay addresses Substance-P receptor (Homo sapiens, UniProt P25103).

“And” between values parts separate entries of the source, which are not always exact repeats. Equal entries are not always repeated.

Substance-P receptor, sequence (P25103 whole entry): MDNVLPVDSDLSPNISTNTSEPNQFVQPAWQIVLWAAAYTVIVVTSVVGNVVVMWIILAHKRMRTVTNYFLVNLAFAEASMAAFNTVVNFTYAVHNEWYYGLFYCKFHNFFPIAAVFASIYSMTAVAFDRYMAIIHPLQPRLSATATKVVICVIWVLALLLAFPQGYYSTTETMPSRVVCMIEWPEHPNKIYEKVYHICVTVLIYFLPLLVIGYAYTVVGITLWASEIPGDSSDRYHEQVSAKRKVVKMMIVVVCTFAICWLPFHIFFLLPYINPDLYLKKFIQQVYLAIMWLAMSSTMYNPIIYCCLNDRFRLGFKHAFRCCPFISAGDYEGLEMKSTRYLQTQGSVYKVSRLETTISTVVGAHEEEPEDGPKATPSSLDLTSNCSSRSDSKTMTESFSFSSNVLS

For `CN(C[C@@H](CCN1CCC(c2ccccc2[S+](C)[O-])CC1)c1ccc(Cl)c(Cl)c1)C(=O)c1cc(C#N)cc2ccccc12` (stereo partly specified), the Ki (usually the equilibrium dissociation constant of an inhibitor or competing ligand from its target) is 610 pM and 120 pM.
